Data on 15 compounds can be found in US20110281807A1, “PLANT DISEASE CONTROL AGENT COMPRISING D-TAGATOSE AS ACTIVE INGREDIENT, AND PLANT DISEASE CONTROL METHOD” (NATIONAL UNIVERSITY CORPORATION KAGAWA UNIVERSITY, priority 2008, published 2011).

Several values for one entry are separate records, joined by “and”; a condition that tells them apart may be missing. Identical values can stand only once. Like-named read-outs stand apart in the source and are kept apart here.

In experiment [1] the test system is Pseudoperonospora cubensis. Description: cucumber downy mildew, pot test: curative effect.
Procedure: Test plants (cucumber, variety: Sagami hanpaku) were seeded and grown until the one true leaf stage. And then a sporangium suspension of Pseudoperonospora cubensis containing 1×10^3/ml were sprayed on the back side of the leaves of test plants for inoculation and then the plants were put for 16 hours in an inoculation chamber (20° C. to 23° C.) to promote disease. For a curative test, the inoculated plants as described above were used.
D-Tagatose was diluted to 5%, 1% and 0.5% with distilled water and then 10 ml of the dilution was sprayed on the test plant. Seven days after the spraying of D-tagatose the disease severity of the test plants was observed and the effectiveness of test sample was judged. Tests were carried out using two plants for each test set and the disease severity of the test plants was judged. The control value was calculated from the degree of disease severity as in Example 1.
Experiment [2] concerns Pseudoperonospora cubensis. Description: cucumber downy mildew, pot test: preventive effect. As to conditions: for Preventive value (3 DAS): inoculated 3 days after spraying; for Preventive value (5 DAS): inoculated 5 days after spraying.
Procedure: Test plants (cucumber, variety: Sagami hanpaku) were seeded and grown until the one true leaf stage. D-Tagatose was diluted to 5%, 1% and 0.5% with distilled water and then 10 ml of the dilution was sprayed on the test plant. Three or five days after spraying, a sporangium suspension of Pseudoperonospora cubensis containing 1×10^3/ml were inoculated by spraying on test plants and then the plants were put for 16 hours in an incubation chamber (20° C. to 23° C.) to promote disease. Seven days after inoculation the disease severity of the test plants was observed and the effectiveness of test sample was judged. Tests were carried out using two plants for each test set and the disease severity of the test plants was judged in accordance with the following criteria. The preventive value was calculated from the degree of the disease severity.
(§1) 0 (No lesion) 1 (Lesion area was not more than 40%) 2 ((Lesion area was 40%-80%) 3 (Lesion area was not less than 80%)
Preventive value=100{1−(n/N)} N=disease severity of untreated leaf, n=disease severity of the tested leaf
For experiment [3], the system named is Pseudoperonospora cubensis. To be noted: alone.
Procedure: Test plants (cucumber, variety: Sagami hanpaku) were seeded and grown until the one true leaf stage. D-tagatose alone was diluted to 5%, 1%, 0.5% and 0.1%, and the combination of D-tagatose and other saccharide were diluted to be 0.5% and 0.5% solution respectively with distilled water, and then 10 ml of the dilution was sprayed on the test plant. Three days after spraying of the solution, a sporangium suspension of Pseudoperonospora cubensis containing 1×10^3/ml were inoculated by spraying on test plants and then put them for 16 hours in an inoculation chamber (20° C. to 23° C.) to promote disease. Seven days after inoculation the disease severity of the test plants was observed and the effectiveness of test sample was judged. Tests were carried out using two plants for each test set and the disease severity of the test plants was judged in accordance with the following criteria. The preventive value was calculated from the degree of disease severity as in example 1.
Synergistic effect was determined by the Colby's equation below.
X is the observed effect, in percentage, of the first active ingredient and, and Y is the observed effect, in percentage, of the second active ingredient. E is the effect, in percentage, of the mixture expected from additive contribution of the individual components.
For another experiment, the system named is Plasmopara viticola. To be noted: Plasmopara viticola, 168 h, read-out: Preventive value.
Experiment [4] has as its system Pythium aphanidermatum. To be noted: 300 ppm, 10 ml soil drench; from germination rate after 2 weeks.
Procedure: Five seeds of test plants (cucumber, variety: Sagami hanpaku) were sowed in a pot (5×5 cm), which contains infested soil with Pythium aphanidermatum (mycelium 100 g/1 L soil) and the seeds were covered with the soil. […] After 2 weeks, the disease severity of the test plants was observed and the effectiveness of test sample was judged. Tests were carried out in triplicate using 5 plants for each test set and the preventive value was calculated from the germination rate.
The next experiment relates to Botrytis cinerea. To be noted: Botrytis cinerea, in Solanum lycopersicum, 168 h, read-out: Preventive value.
Experiment [5] has as its system Pseudoperonospora cubensis. As to conditions: 300 ppm, 5 ml soil drench; inoculated 5 days after drenching.
Procedure: Test plants (cucumber, variety: Sagami hanpaku) were seeded and grown until the one true leaf stage. D-Tagatose was diluted to 5% and 1% with distilled water and then 5 ml of the dilution was drenched into the soil of the pot. Five days after drenching, a sporangium suspension of Pseudoperonospora cubensis containing 1×10^3/ml were noculated by spraying on the test plants and then put them for 16 hours in an inoculation chamber (20° C. to 23° C.) to promote disease. Seven days after inoculation the disease severity of the test plants was observed and the effectiveness of test sample was judged. Tests were carried out using two plants for each test set and the disease severity of the test plants was judged. The preventive value was calculated from the degree of disease severity as in Example 1.
Experiment [6] has as its system Puccinia recondita. To be noted: Puccinia recondita, in Triticum aestivum, 168 h, read-out: Preventive value.
Procedure: Test plants (variety: Nourin 61 gou) were sowed and grown until two leaves stage.
D-Tagatose and fungicide were diluted to 10000 ppm and the concentration listed in table 19, respectively, with distilled water, and 10 ml of the dilution was sprayed thoroughly on the plants. Three days after the spraying of the dilution, the plants were inoculated with Puccinia recondita containing 1×10^3/ml and then put for 16 hours in an inoculation chamber (20° C. to 23° C.) to promote disease. Seven days after inoculation the disease severity of the test plants was observed and the effectiveness of test sample was judged.
Another experiment has as its system Sphaerotheca fuliginea. As to conditions: Podosphaera fuliginea, in Cucumis sativus, 168 h, read-out: Preventive value.
For experiment [7], the system named is Erysiphe graminis f.sp. hordei. As to conditions: Blumeria graminis, in Hordeum vulgare, 168 h, read-out: Preventive value.
Procedure: Test plants (barley, variety: Akashinriki) were seeded and grown until the one leaf stage. D-tagatose and fungicide were diluted to 5000 ppm and the concentrations listed in table 21, respectively, with distilled water and 10 ml of the dilution was sprayed thoroughly on the plants. Three days after spraying, a condia suspension of Erysiphe graminis f.sp. hordei was inoculated by spraying on test plants. 7 days after inoculation the disease severity of the test plants was observed and the effectiveness of test sample was judged.
Experiment [8] has as its system Pseudoperonospora cubensis. To be noted: Pseudoperonospora cubensis, in Cucumis sativus, 168 h, read-out: Preventive value.
Procedure: Test plants (cucumber, variety: Sagami hanpaku) were seeded and grown until the one true leaf stage. And then, a sporangium suspension of Pseudoperonospora cubensis containing 1×10^3/ml were spraying for inoculation on the back side of the leaves of test plants and then put for 16 hours in an inoculation chamber (20° C. to 23° C.) to promote disease. For a curative test, the inoculated plants as described above were used.
D-Tagatose was diluted to 5000 ppm and the fungicides were diluted to the concentrations listed in table 15, with distilled water, and 10 ml of the dilution was sprayed. Seven days after inoculation the disease severity of the test plants was observed and the effectiveness of test sample was judged.
The test system of experiment [9] is Pseudoperonospora cubensis. As to conditions: Pseudoperonospora cubensis, in Cucumis sativus, 168 h, read-out: Preventive value. The source holds these as a separate data set.
Procedure: Test plants (cucumber, variety: Sagami hanpaku) were seeded and grown until the one true leaf stage. D-Tagatose was diluted to 5000 ppm and the fungicides were diluted to the concentrations listed in table 14, with distilled water. And then 10 ml of the dilution was sprayed on the test plant. Three days after spraying of the solution, a sporangium suspension of Pseudoperonospora cubensis containing 1×10^3/ml were inoculated by spraying on test plants and then put for 16 hours in an inoculation chamber (20° C. to 23° C.) to promote disease. Seven days after inoculation the disease severity of the test plants was observed and the effectiveness of the test sample was judged. Tests were carried out using two plants for each test set and the disease severity of the test plants was judged in accordance with the following criteria. The preventive value was calculated from the degree of disease severity.
as §1
Preventive value=100{1−(n/N)} N=disease severity of untreated leaf, n=disease severity of the test leaf Synergistic effect was determined by Colby's equation.
Another experiment concerns Peronospora parasitica. Put plainly: cabbage downy mildew, pot test: preventive effect. As to conditions: 600 ppm spray; inoculated 3 days after spraying.
In experiment [10] the test system is Phytophthora infestans. Description: whole plant or invertebrate. As to conditions: Phytophthora infestans, in Solanum lycopersicum, 168 h, read-out: Preventive value. The format is in vivo.
The subject of experiment [11] is Pythium aphanidermatum. Description: cucumber damping-off, pot test: soil drench of D-tagatose combined with fungicides. As to conditions: Pythium aphanidermatum, in Cucumis sativus, soil, 336 h, read-out: Preventive value.
Procedure: Five seeds of test plants (cucumber, variety: Sagami hanpaku) were sowed in a pot (5×5 cm), which contains infested soil with Pythium aphanidermatum (mycelium 100 g/1 L soil) and was covered with soil. D-Tagatose was diluted to 5000 ppm and the fungicides were diluted to the concentrations listed in table 18, with distilled water. The pot was drenched with 10 ml of the dilution. After 2 weeks, the disease severity of the test plants was observed and the effectiveness of test sample was judged. Tests were carried out in triplicate using 5 plants for each test set and the preventive value was calculated from the germination rate.
Experiment [12] concerns Phytophthora infestans. The format is in vivo. As to conditions: 300 ppm spray; inoculated 3 days after spraying.
Experiment [13] concerns Puccinia recondita. Description: wheat brown rust, field trial. As to conditions: 200 ppm.
Procedure: Test plants (variety: Nourin 61 gou) were sowed and grown until heading stage. D-Tagatose was diluted to 5% with distilled water and sprayed thoroughly on the plants two times every 8 days. Three days after the first spraying of the dilution, wheat leaves inoculated with wheat fusarium blight (Puccinia recondita) were kept in the test plants. The disease severity of the test plants was observed 21 days after last spraying and the effectiveness of test sample was judged. Tests were carried out in duplicate. One plot of each test was 5 m^2. The disease severity of the test plants was judged in accordance with the following criteria. The preventive value was calculated from the degree of disease severity.
The test system of the next experiment is Pyricularia oryze. Put plainly: whole plant or invertebrate. The format is in vivo. As to conditions: Pyricularia, in Oryza sativa, 168 h, read-out: Preventive value.

Procedure for Botrytis cinerea: Test plants (tomato, variety: Ogata-fukujyu) were seeded and grown until the three leaf stage. D-Tagatose and fungicide were diluted to 10000 ppm and the concentrations liste in table 23, respectively, with distilled water and 10 ml of the dilution was sprayed on the plants. Three days after spraying the solution, condia suspension of Botrytis cinerea were inoculated by spraying on test plants and then put for 16 hours in an inoculation chamber (20° C. to 23° C.) to promote disease. Seven days after inoculation, the disease severity of the test plants was observed and the effectiveness of test sample was judged.
Procedure for Peronospora parasitica: Test plants (cabbage, variety: Shikidori) were seeded and grown until 4 leaves stage. […] Three days after spraying, a suspension containing condia of cucumber downy mildew (Peronospora parasitica) was inoculated by spraying on test plants. Seven days after inoculation the disease severity of the test plants was observed and the effectiveness of test sample was judged. Tests were carried out using two plants for each test set and the disease severity of test plants was judged in accordance with the following criteria. The preventive value was calculated from the degree of disease severity as in Example 1.
Procedure for Plasmopara viticola: Test plants (variety: Neo Muscat) were seeded and grown until three leaves. D-Tagatose was diluted to 5000 ppm and the fungicides were diluted to the concentrations listed in table 16, with distilled water, and 10 ml of the dilution was sprayed on the plants. Three days after the spraying of the dilution, the plants were infected by spraying a sporangium suspension of Plasmopara viticola containing 1×10^3/ml and then put for 16 hours in an inoculation chamber (20° C. to 23° C.) to promote disease. The disease severity of the test plants was observed 7 days after inoculation, and the effectiveness of test sample was judged.
Procedure for Sphaerotheca fuliginea: Test plants (cucumber, variety: Sagami hanpaku) were seeded and grown until the one true leaf stage. D-Tagatose and fungicide were diluted to 5000 ppm and the concentrations listed in table 20, respectively, with distilled water and 10 ml of the dilution was sprayed thoroughly on the plants. Three days after spraying, a condia suspension containing of Sphaerotheca fuliginea were inoculated by spraying on test plants.
Seven days after inoculation the disease severity of the test plants was observed and the effectiveness of test sample was judged.

`CSC(=O)c1cccc2nnsc12` [Acibenzolar-S-Methyl, acibenzolar-S-methyl]: in [1] (50 ppm sprayed after inoculation (curative)), the “Preventive value (control value)” value was found to be 25.0. In [2] (50 ppm spray), the “Preventive value (3 DAS)” value came to 91.7 and the “Preventive value (5 DAS)” value is reported as 99.2. For the same compound, the Preventive value in experiment [3] (50 ppm) is 95.0.

`O=C(CO)[C@@H](O)[C@H](O)[C@H](O)CO` [D-Fuctose, D-fructose] registered a Preventive value in experiment [3] (5000 ppm) of 0.0.

As for `O=C[C@@H](O)[C@@H](O)[C@H](O)[C@H](O)CO` [D-Mannose, D-mannose], in [3] (5000 ppm), the Preventive value is 0.0.

`O=C(CO)[C@H](O)[C@H](O)[C@H](O)CO` [D-Psicose, D-psicose]: the Preventive value in experiment [3] (5000 ppm) worked out at 0.0.

The compound `O=C(CO)[C@H](O)[C@@H](O)[C@H](O)CO` [D-Sorbose, D-sorbose] registered a Preventive value in [3] (5000 ppm) of 0.0.

For the compound `COCC(=O)N(c1c(C)cccc1C)C(C)C(=O)OC` (stereo not drawn) [Metalaxyl, metalaxyl], the pest or weed control at 2 ppm worked out at 50% in the experiment on Plasmopara viticola, 33% in [8], 67% in [9] and 67% in the experiment with Phytophthora infestans [10]. Further, the Preventive value with Pythium aphanidermatum [4] is listed as 95.0; in experiment [5], 100.0; in experiment [3] (300 ppm) it was 100.0; in the experiment on Peronospora parasitica, 98.4; with Phytophthora infestans [12], 93.3. The pest or weed control at 250 ppm (with Botrytis cinerea; with Puccinia recondita [6]; in the experiment with Sphaerotheca fuliginea; in experiment [7]) was 0% in each case. In experiment [1] (300 ppm sprayed after inoculation (curative)), the “Preventive value (control value)” value is reported as 100.0. Further, the “Preventive value (3 DAS)” value in [2] (300 ppm spray) was found to be 100.0. For the same compound, the “Preventive value (5 DAS)” value in [2] (300 ppm spray) is given as 100.0. Besides, in the experiment on Pythium aphanidermatum [11], the pest or weed control at 5 ppm turned out to be 83%.

`C=CCOC1=NS(=O)(=O)c2ccccc21` [Probenazole, probenazole]: in [1] (100 ppm sprayed after inoculation (curative)), the “Preventive value (control value)” value is given as 18.3. In experiment [2] (100 ppm spray), the “Preventive value (3 DAS)” value came to 33.3 and the “Preventive value (5 DAS)” value is listed as 95.0. Also, the Preventive value in experiment [3] (100 ppm) worked out at 66.7.

In the case of `CC(C)(C)C(O)(CCc1ccc(Cl)cc1)Cn1cncn1` (stereo not drawn) [Tebuconazole, tebuconazole], the pest or weed control at 10 ppm in the experiment on Botrytis cinerea was found to be 33%. Besides, the pest or weed control at 0.4 ppm with Puccinia recondita [6] is 50%. Moreover, the pest or weed control at 0.4 ppm in the experiment on Sphaerotheca fuliginea was found to be 73%. Also, the pest or weed control at 0.4 ppm in [7] is 67%. In the experiment with Puccinia recondita [13] (average of plots), the “D.D.S (Degree of disease severity), Av” value came to 0.2. In the experiment on Puccinia recondita [13] (per plot (1, 2), 100 leaves), the “Leaves number(n) of disease severity 0” value was 98 and 100; the “Leaves number(n) of disease severity 2” value was 0; the “Leaves number(n) of disease severity 3” value stood at 0; the “Leaves number(n) of disease severity 4” value is on record as 0. Also, in the experiment on Puccinia recondita [13] (per plot (1, 2), 100 leaves), the “Leaves number(n) of disease severity 5” value was 0 and the “Leaves number(n) of disease severity 6” value was determined as 0. Moreover, the “P.V. (Preventive value), Av” value with Puccinia recondita [13] (sprayed two times every 8 days, rated 21 days after last spraying) came to 99.8.

Consider `Cc1ccc(-c2c(Cl)nc(C#N)n2S(=O)(=O)N(C)C)cc1` [cyazofamid], for which the pest or weed control at 0.4 ppm in the experiment on Plasmopara viticola was determined as 50%; in [8] it was 0%; in [9] it was 73%; with Phytophthora infestans [10] it was 17%. Further, the pest or weed control at 250 ppm (with Botrytis cinerea; with Puccinia recondita [6]; with Sphaerotheca fuliginea; in [7]; in the experiment with Pyricularia oryze) was 0% in each case. The pest or weed control at 50 ppm with Pythium aphanidermatum [11] was found to be 83%.

With `Cc1cc(C2CC2)nc(Nc2ccccc2)n1` [cyprodinil], the pest or weed control at 250 ppm is 0% in the experiment on Plasmopara viticola; 67% in the experiment with Puccinia recondita [6]; 0% in experiment [8]; 0% in [9]; 0% in the experiment on Phytophthora infestans [10]; 73% with Pyricularia oryze. For the same compound, the pest or weed control at 250 ppm in the experiment on Pythium aphanidermatum [11] is 0%. In addition, the values for the pest or weed control at 10 ppm (in the experiment with Botrytis cinerea; with Sphaerotheca fuliginea; in experiment [7]) were 73%, 67% and 17%, respectively.

With `N#Cc1c[nH]cc1-c1cccc2c1OC(F)(F)O2` [fludioxonil], the pest or weed control at 10 ppm in the experiment with Plasmopara viticola came to 33%; in experiment [8], 0%; in experiment [9], 57%; in the experiment on Phytophthora infestans [10], 0%. For the same compound, in the experiment on Botrytis cinerea, the pest or weed control at 2 ppm was 67%. Moreover, the pest or weed control at 50 ppm in the experiment on Puccinia recondita [6] was 17%; in the experiment with Pyricularia oryze it was 83%. Also, the pest or weed control at 250 ppm was 73% in the experiment on Sphaerotheca fuliginea, 73% in [7] and 0% in the experiment with Pythium aphanidermatum [11].

Turning to `Cc1cc(O)no1` [hymexazol], the pest or weed control at 250 ppm (with Plasmopara viticola; in the experiment with Botrytis cinerea; with Puccinia recondita [6]; in the experiment on Sphaerotheca fuliginea; in experiment [7]; in experiment [8]) was 0% in each case. The pest or weed control at 250 ppm came to 0% in [9], 0% with Phytophthora infestans [10] and 33% in the experiment on Pyricularia oryze. Further, the pest or weed control at 50 ppm in the experiment with Pythium aphanidermatum [11] came out at 67%.

Take `CC(C)CC(C)c1sccc1NC(=O)c1cn(C)nc1C(F)(F)F` (stereo not drawn) [penthiopyrad]: the pest or weed control at 50 ppm was found to be 0% with Plasmopara viticola; 0% in experiment [8]; 0% in experiment [9]; 0% in the experiment with Phytophthora infestans [10]; 40% in the experiment on Pyricularia oryze. Further, the pest or weed control at 10 ppm in the experiment with Botrytis cinerea is 67%. Moreover, the results for the pest or weed control at 0.4 ppm (in the experiment on Puccinia recondita [6]; in the experiment with Sphaerotheca fuliginea; in experiment [7]) were 67%, 50% and 67%, respectively. Further, the pest or weed control at 250 ppm with Pythium aphanidermatum [11] worked out at 0%.

As to `C[Si](C)(C)CC(O)(Cn1cncn1)c1ccc(F)cc1` (stereo not drawn) [simeconazole], the pest or weed control at 250 ppm with Plasmopara viticola turned out to be 0%; in [8], 0%; in [9] it was 0%; in the experiment with Phytophthora infestans [10], 0%; in the experiment on Pyricularia oryze it was 73%; in the experiment with Pythium aphanidermatum [11], 0%. Moreover, the pest or weed control at 50 ppm with Botrytis cinerea was 33%. Also, the pest or weed control at 10 ppm in the experiment on Puccinia recondita [6] was found to be 67%. The values for the pest or weed control at 0.4 ppm (in the experiment with Sphaerotheca fuliginea; in experiment [7]) were 83% and 50%, respectively.

Consider `COC(=O)NC(=S)Nc1ccccc1NC(=S)NC(=O)OC` [thiophanate-methyl], for which the pest or weed control at 250 ppm with Plasmopara viticola is 0%; in experiment [8] it was 0%; in [9], 0%; in the experiment on Phytophthora infestans [10] it was 0%; with Pyricularia oryze, 83%; in the experiment on Pythium aphanidermatum [11], 0%. The pest or weed control at 50 ppm in the experiment with Botrytis cinerea stood at 83%. Further, the pest or weed control at 10 ppm in the experiment on Puccinia recondita [6] turned out to be 40%; in the experiment on Sphaerotheca fuliginea, 83%; in experiment [7], 83%.
